According to ChEMBL document CHEMBL5465560, “Selectivity Literature for EUbOPEN Chemogenomic Library” (2024):

How the values were obtained:
[1] = target: T1, Protein arginine N-methyltransferase 7 (Homo sapiens) (UniProt Q9NVM4); experiment: Selectivity interaction (Methyltransferase screen (radiometric assays, panel of 8 PRMTs, 21 protein lysine methyltransferases, 3 DNA methyltransferases, and one RNA methyltransferase)) EUB0000272b PRMT7
T1 sequence (whole entry): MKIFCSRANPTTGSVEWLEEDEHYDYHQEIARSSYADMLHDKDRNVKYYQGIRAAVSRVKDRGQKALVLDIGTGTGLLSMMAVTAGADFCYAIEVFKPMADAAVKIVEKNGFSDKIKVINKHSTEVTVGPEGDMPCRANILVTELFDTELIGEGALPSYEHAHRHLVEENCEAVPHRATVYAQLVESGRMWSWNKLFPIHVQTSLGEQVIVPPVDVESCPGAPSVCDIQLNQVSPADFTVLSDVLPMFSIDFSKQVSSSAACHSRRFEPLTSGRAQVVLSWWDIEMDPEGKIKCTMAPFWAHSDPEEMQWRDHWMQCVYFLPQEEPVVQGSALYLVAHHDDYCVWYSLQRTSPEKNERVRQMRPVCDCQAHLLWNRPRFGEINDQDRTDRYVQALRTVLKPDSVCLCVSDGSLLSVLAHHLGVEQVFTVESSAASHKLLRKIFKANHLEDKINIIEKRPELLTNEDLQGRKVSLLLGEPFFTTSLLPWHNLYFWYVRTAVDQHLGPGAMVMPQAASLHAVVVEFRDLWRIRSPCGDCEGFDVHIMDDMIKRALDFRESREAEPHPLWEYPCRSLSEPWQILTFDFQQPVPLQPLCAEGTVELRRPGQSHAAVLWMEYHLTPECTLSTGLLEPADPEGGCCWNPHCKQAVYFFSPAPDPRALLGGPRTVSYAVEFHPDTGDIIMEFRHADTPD

[2] = target: Casein kinase I isoform gamma-2 (Homo sapiens) (UniProt P78368); experiment: Selectivity interaction (Ambit KINOMEscan and KiNATiv profiling in Jurkat cells) EUB0000090b CSNK1G2; format: cell-based; details: at 1 µM
[3] = target: Fibroblast growth factor receptor 2 (Homo sapiens) (UniProt P21802); experiment: Selectivity interaction (Kinase panel (DSF assay)) EUB0001558a FGFR2
[4] = target: Cyclin-dependent kinase 2 (Homo sapiens, UniProt P24941); experiment: Selectivity interaction (Kinase panel (enzymatic assay)) EUB0000595a CDK2
[5] = target: Tyrosine-protein kinase Blk (Homo sapiens) (UniProt P51451); experiment: Selectivity interaction (Kinase panel (Invitrogen)) EUB0000639a BLK; details: at 200 nM
[6] = target: Phosphatidylinositol 4-phosphate 3-kinase C2 domain-containing subunit alpha (Homo sapiens) (UniProt O00443); experiment: Selectivity interaction (ProQinase) EUB0000171b PIK3C2A
[7] = target: Serine/threonine-protein kinase SIK3 (Homo sapiens) (UniProt Q9Y2K2); experiment: Selectivity interaction (ProQinase) EUB0000171b SIK3
[8] = target: T2, Myosin light chain kinase (Homo sapiens) (UniProt Q32MK0); experiment: Selectivity interaction (KinomeScan (DiscoverX)) EUB0001049a MYLK3; details: at 1 µM
T2 sequence (whole entry): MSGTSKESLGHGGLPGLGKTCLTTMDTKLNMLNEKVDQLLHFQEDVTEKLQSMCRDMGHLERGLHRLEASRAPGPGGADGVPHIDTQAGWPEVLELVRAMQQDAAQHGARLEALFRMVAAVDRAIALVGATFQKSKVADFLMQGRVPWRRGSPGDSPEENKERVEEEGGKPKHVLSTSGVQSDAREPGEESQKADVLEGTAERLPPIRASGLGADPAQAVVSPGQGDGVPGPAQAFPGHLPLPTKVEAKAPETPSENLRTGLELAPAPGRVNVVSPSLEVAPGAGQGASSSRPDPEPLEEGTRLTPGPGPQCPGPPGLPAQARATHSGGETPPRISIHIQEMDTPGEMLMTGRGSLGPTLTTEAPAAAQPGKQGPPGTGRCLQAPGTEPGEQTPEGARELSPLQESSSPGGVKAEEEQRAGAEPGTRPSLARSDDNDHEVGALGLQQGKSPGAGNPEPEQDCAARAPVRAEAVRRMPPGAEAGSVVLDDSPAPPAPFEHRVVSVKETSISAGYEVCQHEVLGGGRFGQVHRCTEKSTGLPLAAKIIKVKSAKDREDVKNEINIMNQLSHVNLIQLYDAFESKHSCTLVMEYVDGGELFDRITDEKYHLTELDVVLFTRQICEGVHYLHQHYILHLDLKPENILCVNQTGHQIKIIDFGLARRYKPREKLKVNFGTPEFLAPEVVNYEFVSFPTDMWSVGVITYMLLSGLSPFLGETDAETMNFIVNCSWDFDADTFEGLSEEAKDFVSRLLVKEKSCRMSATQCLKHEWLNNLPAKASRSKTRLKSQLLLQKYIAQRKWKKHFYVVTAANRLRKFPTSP

[9] = target: Bromodomain adjacent to zinc finger domain protein 2A (Homo sapiens, UniProt Q9UIF9)
[10] = target: T3, Serine/threonine-protein kinase Sgk3 (Homo sapiens) (UniProt Q96BR1); experiment: Selectivity interaction (Kinase screening (Nanosyn)) EUB0000604a SGK3
T3 sequence (whole entry): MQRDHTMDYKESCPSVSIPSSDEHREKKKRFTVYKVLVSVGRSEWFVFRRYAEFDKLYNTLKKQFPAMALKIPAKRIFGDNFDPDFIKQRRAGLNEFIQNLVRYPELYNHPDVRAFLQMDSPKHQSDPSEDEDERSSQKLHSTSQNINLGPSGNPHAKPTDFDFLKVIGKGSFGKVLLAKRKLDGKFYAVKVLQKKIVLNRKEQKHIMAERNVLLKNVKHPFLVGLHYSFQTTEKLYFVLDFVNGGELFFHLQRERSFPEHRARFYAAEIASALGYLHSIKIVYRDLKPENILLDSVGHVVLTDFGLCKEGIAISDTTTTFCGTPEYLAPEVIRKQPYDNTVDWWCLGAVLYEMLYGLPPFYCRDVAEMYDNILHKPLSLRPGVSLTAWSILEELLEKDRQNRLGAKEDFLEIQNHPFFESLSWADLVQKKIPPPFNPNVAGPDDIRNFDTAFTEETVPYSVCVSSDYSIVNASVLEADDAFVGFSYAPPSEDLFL

Chain of Phosphatidylinositol 4-phosphate 3-kinase C2 domain-containing subunit alpha (Homo sapiens) (O00443 whole entry, the tested form may be a part): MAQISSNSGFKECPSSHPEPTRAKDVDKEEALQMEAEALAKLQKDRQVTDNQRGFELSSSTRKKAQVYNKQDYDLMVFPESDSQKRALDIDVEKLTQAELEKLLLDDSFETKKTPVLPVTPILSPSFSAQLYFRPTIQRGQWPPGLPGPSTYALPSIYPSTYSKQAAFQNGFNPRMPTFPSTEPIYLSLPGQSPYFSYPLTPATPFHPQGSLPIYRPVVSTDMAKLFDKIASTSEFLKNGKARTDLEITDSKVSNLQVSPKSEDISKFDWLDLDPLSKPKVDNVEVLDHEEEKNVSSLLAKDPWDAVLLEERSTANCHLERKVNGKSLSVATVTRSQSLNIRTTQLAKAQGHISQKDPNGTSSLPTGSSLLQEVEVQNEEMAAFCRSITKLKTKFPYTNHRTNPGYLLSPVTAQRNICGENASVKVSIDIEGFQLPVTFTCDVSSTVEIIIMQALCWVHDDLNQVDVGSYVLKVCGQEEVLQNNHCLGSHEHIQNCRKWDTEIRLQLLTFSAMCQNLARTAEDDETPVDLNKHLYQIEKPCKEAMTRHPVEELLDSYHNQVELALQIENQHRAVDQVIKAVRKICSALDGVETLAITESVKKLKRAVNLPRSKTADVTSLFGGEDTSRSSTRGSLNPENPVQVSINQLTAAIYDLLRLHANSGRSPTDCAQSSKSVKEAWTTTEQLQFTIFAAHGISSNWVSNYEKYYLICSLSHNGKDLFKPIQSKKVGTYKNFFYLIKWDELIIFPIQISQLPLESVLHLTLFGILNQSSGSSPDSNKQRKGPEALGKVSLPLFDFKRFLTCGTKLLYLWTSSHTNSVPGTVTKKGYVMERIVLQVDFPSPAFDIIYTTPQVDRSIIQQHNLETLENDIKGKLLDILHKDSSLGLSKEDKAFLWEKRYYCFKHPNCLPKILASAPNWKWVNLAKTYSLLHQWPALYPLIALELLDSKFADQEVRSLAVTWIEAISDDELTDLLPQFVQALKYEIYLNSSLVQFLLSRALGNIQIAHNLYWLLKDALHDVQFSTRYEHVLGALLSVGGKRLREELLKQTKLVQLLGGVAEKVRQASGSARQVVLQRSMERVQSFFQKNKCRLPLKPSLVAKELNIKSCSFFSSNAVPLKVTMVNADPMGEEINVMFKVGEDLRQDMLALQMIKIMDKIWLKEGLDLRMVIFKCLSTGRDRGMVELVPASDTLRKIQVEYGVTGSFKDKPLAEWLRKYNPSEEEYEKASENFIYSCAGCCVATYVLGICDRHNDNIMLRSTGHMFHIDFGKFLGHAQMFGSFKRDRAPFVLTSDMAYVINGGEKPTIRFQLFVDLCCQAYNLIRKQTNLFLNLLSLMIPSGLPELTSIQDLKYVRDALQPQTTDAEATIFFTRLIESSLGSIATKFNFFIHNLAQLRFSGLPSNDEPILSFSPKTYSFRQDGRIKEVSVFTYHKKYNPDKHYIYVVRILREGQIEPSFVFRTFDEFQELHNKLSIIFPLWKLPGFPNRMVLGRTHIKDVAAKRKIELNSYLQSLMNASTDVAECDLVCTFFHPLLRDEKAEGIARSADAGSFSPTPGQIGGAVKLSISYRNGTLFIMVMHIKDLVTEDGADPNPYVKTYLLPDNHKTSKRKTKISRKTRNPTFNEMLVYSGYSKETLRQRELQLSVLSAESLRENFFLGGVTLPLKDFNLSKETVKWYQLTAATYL
Chain of Serine/threonine-protein kinase SIK3 (Homo sapiens) (Q9Y2K2 whole entry, looked up): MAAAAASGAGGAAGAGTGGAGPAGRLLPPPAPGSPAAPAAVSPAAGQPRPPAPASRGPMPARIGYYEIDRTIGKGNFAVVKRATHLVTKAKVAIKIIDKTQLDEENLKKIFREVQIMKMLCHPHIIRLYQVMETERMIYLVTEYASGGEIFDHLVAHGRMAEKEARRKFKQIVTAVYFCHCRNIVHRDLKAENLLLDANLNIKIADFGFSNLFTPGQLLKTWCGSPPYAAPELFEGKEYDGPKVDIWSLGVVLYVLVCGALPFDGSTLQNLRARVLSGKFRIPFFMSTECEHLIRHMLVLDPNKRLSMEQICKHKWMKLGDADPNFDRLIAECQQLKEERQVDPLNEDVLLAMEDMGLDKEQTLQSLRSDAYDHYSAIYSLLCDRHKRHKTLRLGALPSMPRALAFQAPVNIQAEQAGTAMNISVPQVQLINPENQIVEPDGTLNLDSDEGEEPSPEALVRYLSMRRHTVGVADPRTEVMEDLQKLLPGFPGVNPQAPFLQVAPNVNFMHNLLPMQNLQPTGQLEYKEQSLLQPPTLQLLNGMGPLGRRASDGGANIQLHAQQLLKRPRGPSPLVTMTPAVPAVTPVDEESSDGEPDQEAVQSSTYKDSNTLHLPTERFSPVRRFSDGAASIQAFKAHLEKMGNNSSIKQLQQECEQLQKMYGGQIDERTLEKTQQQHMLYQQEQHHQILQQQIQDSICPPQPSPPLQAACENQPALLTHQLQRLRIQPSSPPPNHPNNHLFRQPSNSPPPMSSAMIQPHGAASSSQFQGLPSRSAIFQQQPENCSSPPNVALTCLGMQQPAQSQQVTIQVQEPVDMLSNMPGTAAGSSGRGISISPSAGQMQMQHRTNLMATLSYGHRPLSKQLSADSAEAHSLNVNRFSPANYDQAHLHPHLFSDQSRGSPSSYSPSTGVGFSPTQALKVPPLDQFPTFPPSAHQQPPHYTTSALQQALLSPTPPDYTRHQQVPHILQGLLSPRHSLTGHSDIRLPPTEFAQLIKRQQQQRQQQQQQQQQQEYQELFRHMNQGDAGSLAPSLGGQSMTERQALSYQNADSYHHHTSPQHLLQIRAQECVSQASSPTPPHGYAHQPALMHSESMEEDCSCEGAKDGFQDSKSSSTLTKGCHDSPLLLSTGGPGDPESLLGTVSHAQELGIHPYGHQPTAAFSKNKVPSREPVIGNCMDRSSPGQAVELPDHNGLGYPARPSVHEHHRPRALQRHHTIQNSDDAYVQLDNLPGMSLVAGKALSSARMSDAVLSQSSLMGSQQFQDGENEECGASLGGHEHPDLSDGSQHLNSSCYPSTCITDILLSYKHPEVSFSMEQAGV
Chain of Bromodomain adjacent to zinc finger domain protein 2A (Q9UIF9 whole entry, the tested form may be a part): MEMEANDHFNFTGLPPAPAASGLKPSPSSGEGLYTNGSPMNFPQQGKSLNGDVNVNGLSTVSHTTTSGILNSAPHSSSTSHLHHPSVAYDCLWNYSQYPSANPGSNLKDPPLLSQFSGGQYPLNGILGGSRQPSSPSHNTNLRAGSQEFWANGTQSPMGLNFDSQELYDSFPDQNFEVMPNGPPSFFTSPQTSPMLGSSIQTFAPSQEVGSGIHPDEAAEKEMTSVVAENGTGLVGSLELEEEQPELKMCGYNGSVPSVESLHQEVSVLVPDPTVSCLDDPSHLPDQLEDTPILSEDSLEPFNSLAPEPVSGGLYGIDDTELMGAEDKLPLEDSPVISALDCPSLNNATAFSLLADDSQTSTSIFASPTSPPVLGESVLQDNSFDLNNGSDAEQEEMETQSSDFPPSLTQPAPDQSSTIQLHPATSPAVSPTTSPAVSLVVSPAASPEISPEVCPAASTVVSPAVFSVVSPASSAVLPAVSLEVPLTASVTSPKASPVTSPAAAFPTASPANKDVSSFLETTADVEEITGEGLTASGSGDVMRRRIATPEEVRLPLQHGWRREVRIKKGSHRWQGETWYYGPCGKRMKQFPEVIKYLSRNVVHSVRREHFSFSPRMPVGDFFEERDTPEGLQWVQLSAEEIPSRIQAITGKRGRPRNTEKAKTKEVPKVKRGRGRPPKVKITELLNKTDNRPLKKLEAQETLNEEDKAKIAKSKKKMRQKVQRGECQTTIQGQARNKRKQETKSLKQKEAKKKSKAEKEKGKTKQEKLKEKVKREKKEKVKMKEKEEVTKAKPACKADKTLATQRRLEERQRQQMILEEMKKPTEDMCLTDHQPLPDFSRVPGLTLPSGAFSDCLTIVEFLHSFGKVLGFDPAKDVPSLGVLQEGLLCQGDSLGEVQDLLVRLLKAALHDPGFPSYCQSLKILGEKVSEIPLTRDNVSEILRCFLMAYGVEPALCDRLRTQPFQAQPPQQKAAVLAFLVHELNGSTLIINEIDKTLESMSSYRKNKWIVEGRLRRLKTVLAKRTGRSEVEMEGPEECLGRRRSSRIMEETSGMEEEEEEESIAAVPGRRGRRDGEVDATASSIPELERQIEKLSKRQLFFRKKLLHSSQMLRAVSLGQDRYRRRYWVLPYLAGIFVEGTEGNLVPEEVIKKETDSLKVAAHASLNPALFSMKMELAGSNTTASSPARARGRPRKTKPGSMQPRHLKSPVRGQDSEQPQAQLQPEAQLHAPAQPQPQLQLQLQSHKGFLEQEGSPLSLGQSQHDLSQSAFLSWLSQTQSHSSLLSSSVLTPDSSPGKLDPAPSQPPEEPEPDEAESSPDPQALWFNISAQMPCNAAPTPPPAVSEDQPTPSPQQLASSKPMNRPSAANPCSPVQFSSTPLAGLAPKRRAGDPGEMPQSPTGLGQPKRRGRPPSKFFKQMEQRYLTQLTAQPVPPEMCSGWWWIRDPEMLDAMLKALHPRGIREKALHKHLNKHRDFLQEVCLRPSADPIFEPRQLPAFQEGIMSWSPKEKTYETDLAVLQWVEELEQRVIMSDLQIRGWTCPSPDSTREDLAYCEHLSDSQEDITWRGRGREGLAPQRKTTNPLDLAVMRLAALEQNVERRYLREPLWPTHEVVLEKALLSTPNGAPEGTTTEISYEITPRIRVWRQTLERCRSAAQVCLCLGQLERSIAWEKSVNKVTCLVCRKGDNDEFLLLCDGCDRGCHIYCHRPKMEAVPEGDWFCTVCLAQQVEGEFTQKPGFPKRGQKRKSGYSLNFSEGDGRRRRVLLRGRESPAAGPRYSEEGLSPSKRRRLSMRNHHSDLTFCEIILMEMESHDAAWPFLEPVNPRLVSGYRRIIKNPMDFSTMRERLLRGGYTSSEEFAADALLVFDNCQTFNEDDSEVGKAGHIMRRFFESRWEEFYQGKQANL

**Q.** What does the source list for `Cc1cc(C)cc([C@H]2c3cc(C)ccc3NC(=O)CN2C(=O)c2ccc(Br)s2)c1`?
**A.** % of activity ([1]; at 1 µM): 97.7%; % of activity ([1]; at 10 µM): 100%

**Q.** How did the % of control [2] turn out when `CN(C)C/C=C/C(=O)Nc1ccc(C(=O)N2CCCC(Nc3ncc(Cl)c(-c4c[nH]c5ccccc45)n3)C2)cc1` (stereo not drawn) was run?
**A.** The % of control was 98%.

**Q.** With `CC(C)(O)[C@H](F)CN1Cc2cc(NC(=O)c3cnn4cccnc34)c(N3CCOCC3)cc2C1=O` as the molecule, how does the dTM [3] read?
**A.** Its dTM is 1 K.

**Q.** For `COCC(=O)NC/C=C/c1ccc2ncnc(Nc3ccc(Oc4ccc(C)nc4)c(C)c3)c2c1` [CP-724714], which IC50 [4] is on record?
**A.** The IC50 was greater than 10 µM.

**Q.** For `CC[C@@H]1[C@H](F)C(=O)N[C@@H]1COc1nccc2cc(C(N)=O)c(OC)cc12` [ZIMLOVISERTIB], which % of inhibition [5] is on record?
**A.** Its % of inhibition is 4.04%.

**Q.** What does the source list for `C=CC(=O)Nc1cccc(C(=O)Nc2ccc(Nc3cc(-c4[nH]c(SC)nc4C)ccn3)cc2)c1`?
**A.** % of control ([6]; at 1 µM): 189%; % of control ([6]; at 5 µM): 183%; % of control ([7]; at 1 µM): 65%; % of control ([7]; at 5 µM): 47%

**Q.** With `COc1cc(Nc2nc(C)cc(-c3cnn4nc(OC)ccc34)n2)cc(C(F)(F)F)c1` as the molecule, how does the % of control [8] read?
**A.** The % of control was 82%.

**Q.** `CN(C)CCCOc1ccc(-c2cc(NCCCn3cccn3)nc(S(C)(=O)=O)n2)cc1` was tested. Which dTM [9] did it give?
**A.** The dTM was less than 2 K.

**Q.** `Cc1cnc(Nc2ccc(F)cc2Cl)nc1-c1c[nH]c(C(=O)N[C@H](CO)c2cccc(Cl)c2)c1` was tested. Which % of inhibition [10] did it give?
**A.** Its % of inhibition is 2%.
